One assay concerns SKOV-3 cells. Description: In vitro cytotoxic activity of h1F6 antibody drug conjugates on SKOV-3 cells (CelltiterGlo viability). It counts as cell-based. The following applies: 96 hours, viability by Promega CelltiterGlo. How it is done:
(See International Patent Publication WO 2006-113909.) The cells were incubated with the following anti-CD70 antibody drug conjugates: h1F6-vc-MMAF(4), h1F6vc-MMAE(4), 1F6mc-MMAF(4), or h1F6mc-MMAF(8) or free MMAF. (See the specification and U.S. Patent Application Publication Nos. 2005-0238649 and 2006-0233794 for a description of the drug linkers. The number in parentheses after each conjugate indicates the average drug loading per antibody.) The SKOV-3 cells were incubated with the conjugates at the indicated concentrations for 96 hours. For these studies, viability was determined using Promega CelltiterGlo.
(In general: In ATP-based viability assays light output follows the ATP content of the culture.)

In assay [1] the test system is native CD70 protein (modified cynomolgus CD70). As to the kind of experiment: Binding of h1F6 to native CD70 on transfected pancreatic cell lines. The note with it: transfected HPAFII, PANC-1 and MiaPaCa-2 cell lines.

Results on 3 molecules are retold here after patent US9120854B2, “Detection and treatment of pancreatic, ovarian and other cancers” (SEATTLE GENETICS, INC., priority 2008, dated 2015).

Where two headings read alike, the source gives them in different places. Square brackets hold non-standard residues; d marks the D form. Peptide text beside a SMILES is read from it. Dolaproine = CO[C@@H]([C@@H]1CCCN1)[C@@H](C)C(=O)O; Dil = CC[C@H](C)[C@H](NC)[C@@H](CC(=O)O)OC; NMeV = CN[C@H](C(=O)O)C(C)C

Turning to `CC[C@H](C)[C@@H]([C@@H](CC(=O)N1CCC[C@H]1[C@H](OC)[C@@H](C)C(=O)N[C@@H](Cc1ccccc1)C(=O)O)OC)N(C)C(=O)[C@@H](NC(=O)[C@@H](NC)C(C)C)C(C)C` [MMAF, dovaline-valine-dolaisoleunine-dolaproine-phenylalanine, reference compound] (H-[NMeV]V[Dil][Dolaproine]F-OH), the IC50 in the assay on SKOV-3 cells (free MMAF, read-out: IC50) was found to be 18 nM.

As for “h1F6: humanized form of anti-CD70 monoclonal antibody 1F6, binds native CD70”, the “binding to native CD70 protein” value in assay [1] is “binds”.

B1: h1F6mc-MMAF(8) (conjugate, chains of the INN, looked up)
VH: QVQLVQSGAEVKKPGASVKVSCKASGYTFTNYGMNWVRQAPGQGLKWMGWINTYTGEPTYADAFKGRVTMTRDTSISTAYMELSRLRSDDTAVYYCARDYGDYGMDYWGQGTTVTVSS
VL: DIVMTQSPDSLAVSLGERATINCRASKSVSTSGYSFMHWYQQKPGQPPKLLIYLASNLESGVPDRFSGSGSGTDFTLTISSLQAEDVAVYYCQHSREVPWTFGQGTKVEIK
modifications: maleimidocaproyl-MMAF, 8 drugs per antibody
Take B1: in the assay with SKOV-3 cells, the IC50 stood at 12 ng/mL.

In general, IC50 refers to the concentration needed to halve the response being measured.
